Laboratory results as given in patent US20250346585A1 (Alexion Pharmaceuticals, Inc., priority 2022, published 2025).

Molecular target: Human complement C1s enzyme (Homo sapiens (Human), UniProt P09871)
Assay: Human C1s enzyme assay
Type: biochemical
Conditions: Human C1s enzyme assay of Example 3; read-out: IC50 (Stars)
Summary of the method: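 IC50 derived by nonlinear regression of rate versus concentration, with rate taken from A405 kinetics (30 s intervals, 30 min) after adding 100 μM each Z-L-Lys-SBzl and DTNB. C1s from human serum, 1.16 nM, exposed to compound for 5 min at RT beforehand; buffer 50 mM Tris, 1 M NaCl, pH 7.5.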

Sequence of Human complement C1s enzyme (P09871 438-688 limits assumed): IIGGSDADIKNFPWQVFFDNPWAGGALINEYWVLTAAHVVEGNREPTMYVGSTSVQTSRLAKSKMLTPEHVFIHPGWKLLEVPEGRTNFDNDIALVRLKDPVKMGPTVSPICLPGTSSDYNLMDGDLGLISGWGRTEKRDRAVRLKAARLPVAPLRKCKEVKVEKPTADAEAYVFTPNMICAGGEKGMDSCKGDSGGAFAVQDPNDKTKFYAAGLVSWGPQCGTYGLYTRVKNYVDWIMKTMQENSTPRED
Sequence of Human complement C1s enzyme (P09871 16-437 partner limits assumed): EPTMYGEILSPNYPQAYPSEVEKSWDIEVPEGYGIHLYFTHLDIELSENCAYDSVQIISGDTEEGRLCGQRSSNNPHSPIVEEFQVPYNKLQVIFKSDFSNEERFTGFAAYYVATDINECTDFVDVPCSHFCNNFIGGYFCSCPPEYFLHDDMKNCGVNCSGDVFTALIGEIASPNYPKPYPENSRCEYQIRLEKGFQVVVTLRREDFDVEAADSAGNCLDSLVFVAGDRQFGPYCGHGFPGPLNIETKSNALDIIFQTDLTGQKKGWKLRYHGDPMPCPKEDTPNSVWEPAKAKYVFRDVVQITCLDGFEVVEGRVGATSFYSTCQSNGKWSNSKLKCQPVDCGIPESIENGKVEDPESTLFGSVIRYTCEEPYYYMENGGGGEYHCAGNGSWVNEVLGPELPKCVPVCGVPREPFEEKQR

| SMILES | IC50 |
| --- | --- |
| CC(C)OC(=O)/N=C(/N)c1csc([C@@H](C)NC(=O)[C@@H]2CC3(CN2C(=O)CNC(=O)c2ccc4c(c2)-c2ccccc2C4(F)F)OCCO3)c1 [Compound 134, isopropyl ((E)-amino(5-((R)-1-((S)-7-((9,9-difluoro-9H-fluorene-3-carbonyl)glycyl)-1,4-dioxa-7-azaspiro[4.4]nonane-8-carboxamido)ethyl)thiophen-3-yl)methylene)carbamate] | < 100 nM |
| C[C@@H](NC(=O)[C@@H]1CC2(CN1C(=O)CNC(=O)c1ccc3c(c1)-c1ccccc1C3(F)F)OCCO2)c1ccc(-c2ncc[nH]2)s1 [Compound 135, (S)—N—((R)-1-(5-(1H-imidazol-2-yl)thiophen-2-yl)ethyl)-7-((9,9-difluoro-9H-fluorene-3-carbonyl)glycyl)-1,4-dioxa-7-azaspiro[4.4]nonane-8-carboxamide] | > 1000 nM |
| COC[C@@]1(F)C[C@@H](C(=O)N[C@H](C)c2cc(C(=N)N)cs2)N(C(=O)CNC(=O)c2ccc(C(F)(F)c3ccccc3)cc2)C1 [Compound 136, (2S,4R)—N—((R)-1-(4-carbamimidoylthiophen-2-yl)ethyl)-1-((4-(difluoro(phenyl)methyl)benzoyl)glycyl)-4-fluoro-4-(methoxymethyl)pyrrolidine-2-carboxamide] | < 100 nM |
| C[C@@H](NC(=O)[C@@H]1CC2(CN1C(=O)CNC(=O)c1ccc3oc4ccccc4c3c1)OCCO2)c1cc(C(=N)N)cs1 [Compound 137, (S)—N—((R)-1-(4-carbamimidoylthiophen-2-yl)ethyl)-7-((dibenzo[b,d]furan-2-carbonyl)glycyl)-1,4-dioxa-7-azaspiro[4.4]nonane-8-carboxamide] | < 100 nM |
| C[C@@H](NC(=O)[C@@H]1CC2(CN1C(=O)CNC(=O)c1ccc3c(c1)C(F)(F)c1ccccc1-3)OCCO2)c1cc(C(=N)N)cs1 [Compound 138, (S)—N—((R)-1-(4-carbamimidoylthiophen-2-yl)ethyl)-7-((9,9-difluoro-9H-fluorene-7-carbonyl)glycyl)-1,4-dioxa-7-azaspiro[4.4]nonane-8-carboxamide] | < 100 nM |
| COC[C@@]1(F)C[C@@H](C(=O)N[C@H](C)c2cc(C(=N)N)cs2)N(C(=O)CNC(=O)c2ccc3c(c2)-c2ccccc2C3(C)C)C1 [Compound 139, (2S,4R)—N—((R)-1-(4-carbamimidoylthiophen-2-yl)ethyl)-1-((9,9-dimethyl-9H-fluorene-3-carbonyl)glycyl)-4-fluoro-4-(methoxymethyl) pyrrolidine-2-carboxamide] | < 100 nM |
| Cn1ncc2cc(-c3ccc(C(=O)NCC(=O)N4CC5(C[C@H]4C(=O)NCc4cc(C(=N)N)cs4)OCCO5)cc3)ccc21 [Compound 140, (S)—N-((4-carbamimidoylthiophen-2-yl)methyl)-7-((4-(1-methyl-1H-indazol-5-yl)benzoyl)glycyl)-1,4-dioxa-7-azaspiro[4.4]nonane-8-carboxamide] | < 100 nM |
| N=C(N)c1csc(CNC(=O)[C@@H]2CC3(CN2C(=O)CNC(=O)c2ccc(-c4ccccc4)c(F)c2)OCCO3)c1 [Compound 141, (S)—N-((4-carbamimidoylthiophen-2-yl)methyl)-7-((2-fluoro-[1,1′-biphenyl]-4-carbonyl)glycyl)-1,4-dioxa-7-azaspiro[4.4]nonane-8-carboxamide] | < 100 nM |
| O=C(NCC(=O)N1CC2(C[C@H]1C(=O)NCc1cc(NC3=NCCCN3)cs1)OCCO2)c1ccc(Oc2ccc(F)cc2)cc1 [Compound 142, (S)-7-((4-(4-fluorophenoxy)benzoyl)glycyl)-N-((4-((1,4,5,6-tetrahydropyrimidin-2-yl)amino)thiophen-2-yl)methyl)-1,4-dioxa-7-azaspiro[4.4]nonane-8-carboxamide] | > 1000 nM |
| NS(=O)(=O)c1cncc(-c2csc(CNC(=O)[C@@H]3CC4(CN3C(=O)CNC(=O)c3ccc(Oc5ccc(F)cc5)cc3)OCCO4)c2)c1 [Compound 143, (S)-7-((4-(4-fluorophenoxy)benzoyl)glycyl)-N-((4-(5-sulfamoylpyridin-3-yl)thiophen-2-yl)methyl)-1,4-dioxa-7-azaspiro[4.4]nonane-8-carboxamide] | > 1000 nM |
| N=C(N)c1csc(CNC(=O)[C@@H]2CC3(CN2C(=O)CNC(=O)c2ccc(-c4cc5ccccc5s4)cc2)OCCO3)c1 [Compound 145] | < 100 nM |
| C[C@@H](NC(=O)[C@@H]1CC2(CN1C(=O)CNC(=O)c1ccc3c(c1)-c1ccccc1C3(F)F)OCCO2)c1cc(/C(N)=N\C(=O)Oc2ccccc2)cs1 [Compound 149, phenyl ((E)-amino(5-((R)-1-((S)-7-((9,9-difluoro-9H-fluorene-3-carbonyl)glycyl)-1,4-dioxa-7-azaspiro[4.4]nonane-8-carboxamido)ethyl)thiophen-3-yl)methylene)carbamate] | < 100 nM |

Now from value to compound:

| IC50 | SMILES |
| --- | --- |
| < 100 nM | N=C(N)c1csc(CNC(=O)[C@@H]2CC3(CN2C(=O)CNC(=O)c2cccc(-c4ccccc4)n2)OCCO3)c1 [Compound 146, (S)—N-((4-carbamimidoylthiophen-2-yl)methyl)-7-((6-phenylpicolinoyl)glycyl)-1,4-dioxa-7-azaspiro[4.4]nonane-8-carboxamide] |
| < 100 nM | N=C(N)c1cc(CNC(=O)[C@@H]2CC3(CN2C(=O)CNC(=O)c2ccc(-c4ccccc4)cc2)OCCO3)cs1 [Compound 147, (S)-7-(([1,1′-biphenyl]-4-carbonyl)glycyl)-N-((5-carbamimidoylthiophen-3-yl)methyl)-1,4-dioxa-7-azaspiro[4.4]nonane-8-carboxamide] |
| < 100 nM | COC(=O)/N=C(/N)c1csc([C@@H](C)NC(=O)[C@@H]2CC3(CN2C(=O)CNC(=O)c2ccc4c(c2)-c2ccccc2C4(F)F)OCCO3)c1 [Compound 148, methyl ((E)-amino(5-((R)-1-((S)-7-((9,9-difluoro-9H-fluorene-3-carbonyl)glycyl)-1,4-dioxa-7-azaspiro[4.4]nonane-8-carboxamido)ethyl)thiophen-3-yl)methylene)carbamate] |
| > 1000 nM | C[C@@H](NC(=O)[C@@H]1CC2(CN1C(=O)CNC(=O)c1ccc3c(c1)-c1ccccc1C3(F)F)OCCO2)c1cc(-c2cn[nH]n2)cs1 [Compound 152, (S)—N—((R)-1-(4-(2H-1,2,3-triazol-4-yl)thiophen-2-yl)ethyl)-7-((9,9-difluoro-9H-fluorene-3-carbonyl)glycyl)-1,4-dioxa-7-azaspiro[4.4]nonane-8-carboxamide] |
| < 100 nM | C[C@@H](NC(=O)[C@@H]1C[C@](F)(CF)CN1C(=O)CNC(=O)c1ccc2c(c1)-c1ccccc1C2(C)C)c1cc(C(=N)N)cs1 [Compound 153, (2S,4R)—N—((R)-1-(4-carbamimidoylthiophen-2-yl)ethyl)-1-((9,9-dimethyl-9H-fluorene-3-carbonyl)glycyl)-4-fluoro-4-(fluoromethyl)pyrrolidine-2-carboxamide] |
| < 100 nM | C[C@@H](NC(=O)[C@@H]1C[C@](F)(CF)CN1C(=O)CNC(=O)c1ccc(C(F)(F)c2ccccc2)cc1)c1cc(C(=N)N)cs1 [Compound 154, (2S,4R)—N—((R)-1-(4-carbamimidoylthiophen-2-yl)ethyl)-1-((4-(difluoro(phenyl)methyl)benzoyl)glycyl)-4-fluoro-4-(fluoromethyl)pyrrolidine-2-carboxamide] |
| < 100 nM | N=C(N)c1cc(CNC(=O)[C@@H]2CC3(CN2C(=O)CNC(=O)c2ccc(-c4ccc(F)cc4F)cc2)OCCO3)cs1 [Compound 155, (S)-N-((5-carbamimidoylthiophen-3-yl)methyl)-7-((2′,4′-difluoro-[1,1′-biphenyl]-4-carbonyl)glycyl)-1,4-dioxa-7-azaspiro[4.4]nonane-8-carboxamide] |
| > 1000 nM | CO[C@@H]1C[C@@H](C(=O)NCc2cc(-c3c[nH]c([N+](=O)[O-])n3)cs2)N(C(=O)CNC(=O)c2ccc(Oc3ccc(F)cc3)cc2)C1 [Compound 156, (2S,4R)-1-((4-(4-fluorophenoxy)benzoyl)glycyl)-4-methoxy-N-((4-(2-nitro-1H-imidazol-4-yl)thiophen-2-yl)methyl)pyrrolidine-2-carboxamide] |
| > 1000 nM | O=C(NCC(=O)N1CC2(C[C@H]1C(=O)NCc1cc(-c3ncc[nH]3)cs1)OCCO2)c1ccc(Oc2ccc(F)cc2)cc1 [Compound 157, (S)-N-((4-(1H-imidazol-2-yl)thiophen-2-yl)methyl)-7-((4-(4-fluorophenoxy)benzoyl)glycyl)-1,4-dioxa-7-azaspiro[4.4]nonane-8-carboxamide] |
| < 100 nM | C[C@@H](NC(=O)[C@@H]1CC2(CN1C(=O)CNC(=O)c1ccc(-c3ccc(F)cc3F)cc1)OCCO2)c1cc(C(=N)N)cs1 [Compound 158, (S)—N—((R)-1-(4-carbamimidoylthiophen-2-yl)ethyl)-7-((2′,4′-difluoro-[1,1′-biphenyl]-4-carbonyl)glycyl)-1,4-dioxa-7-azaspiro[4.4]nonane-8-carboxamide] |
| < 100 nM | C[C@@H](NC(=O)[C@@H]1C[C@@H](OC(F)(F)F)CN1C(=O)CNC(=O)c1ccc2c(c1)-c1ccccc1C2(F)F)c1cc(C(=N)N)cs1 [Compound 159, (2S,4R)—N—((R)-1-(4-carbamimidoylthiophen-2-yl)ethyl)-1-((9,9-difluoro-9H-fluorene-3-carbonyl)glycyl)-4-(trifluoromethoxy)pyrrolidine-2-carboxamide] |
| < 100 nM | C[C@@H](NC(=O)[C@@H]1CC2(CN1C(=O)CNC(=O)c1ccc3c(c1)-c1ccccc1C3O)OCCO2)c1cc(C(=N)N)cs1 (stereo partly drawn) [Compound 162, (8S)—N—((R)-1-(4-carbamimidoylthiophen-2-yl)ethyl)-7-((9-hydroxy-9H-fluorene-3-carbonyl)glycyl)-1,4-dioxa-7-azaspiro[4.4]nonane-8-carboxamide] |
| < 100 nM | C[C@@H](NC(=O)[C@@H]1CC2(CN1C(=O)CNC(=O)c1ccc(-c3ccc(F)cc3)cn1)OCCO2)c1cc(C(=N)N)cs1 [Compound 163, (S)—N—((R)-1-(4-carbamimidoylthiophen-2-yl)ethyl)-7-((5-(4-fluorophenyl)picolinoyl)glycyl)-1,4-dioxa-7-azaspiro[4.4]nonane-8-carboxamide] |
